Reference: US8822530B2, “Sulfur derivatives as chemokine receptor modulators” (Allergan, Inc., priority 2010, dated 2014)

These compounds were tested against T1, CCR2 receptor (Homo sapiens, UniProt P41597) (assay: Calcium activity assay on FLIPR Tetra in HEK-Gqi5 cells stably expressing CCR2).
T1 construct: expressed in transfected cells
Assay type: cell-based
Description: HEK-Gqi5 cells stably expressing CCR2 were cultured in DMEM high glucose, 10% FBS, 1% PSA, 400 μg/ml geneticin and 50 μg/ml hygromycin. Appropriate positive control chemokines (MCP-1, MIP1A or RANTES) was used as the positive control agonist for screening compound-induced calcium activity assayed on the FLIPR^Tetra. The drug plates were prepared in 384-well microplates using the EP3 and the MultiPROBE robotic liquid handling systems. Compounds were synthesized and tested for CCR2 activity.

T1 sequence (P41597 whole entry): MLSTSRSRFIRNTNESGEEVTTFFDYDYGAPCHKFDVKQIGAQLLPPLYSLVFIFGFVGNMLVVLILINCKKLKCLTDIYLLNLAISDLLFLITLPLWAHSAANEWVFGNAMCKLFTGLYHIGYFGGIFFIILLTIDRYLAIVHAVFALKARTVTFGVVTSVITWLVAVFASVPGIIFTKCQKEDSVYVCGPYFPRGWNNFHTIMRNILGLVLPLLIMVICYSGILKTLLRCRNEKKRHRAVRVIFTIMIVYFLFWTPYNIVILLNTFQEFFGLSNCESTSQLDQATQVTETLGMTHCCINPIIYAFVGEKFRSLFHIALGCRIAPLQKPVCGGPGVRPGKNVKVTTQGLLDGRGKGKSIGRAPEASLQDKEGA

SMILES | CCR2 % ANTAGONISM [%] | IC50 [nM]
COC(=O)CCSc1ccc(Cl)cc1NS(=O)(=O)c1ccc(Cl)cc1F [methyl 3-[(4-chloro-2-{[(4-chloro-2-fluorophenyl)sulfonyl]amino}phenyl)sulfanyl]propanoate] | 79 | 995
COC(=O)CC[S+]([O-])c1ccc(Cl)cc1NS(=O)(=O)c1ccc(Cl)cc1F (centres unmarked) [methyl 3-[(4-chloro-2-{[(4-chloro-2-fluorophenyl)sulfonyl]amino}phenyl)sulfinyl]propanoate] | 93 | 98
COC(=O)CCS(=O)(=O)c1ccc(Cl)cc1NS(=O)(=O)c1ccc(Cl)cc1F [methyl 3-[(4-chloro-2-{[(4-chloro-2-fluorophenyl)sulfonyl]amino}phenyl)sulfonyl]propanoate] | 82 | 212
CC(C)(C)OC(=O)CNC(=O)c1ccc(CSc2ccc(Cl)cc2NS(=O)(=O)c2ccc(Cl)c(C(F)(F)F)c2)cc1 [tert-butyl ({[4-({[4-chloro-2-({[4-chloro-3-(trifluoromethyl)phenyl]sulfonyl}amino)phenyl]sulfanyl}methyl)phenyl]carbonyl}amino)acetate] | 43 | 657
CC(C)(C)OC(=O)CNC(=O)c1ccc(C[S+]([O-])c2ccc(Cl)cc2NS(=O)(=O)c2ccc(Cl)c(C(F)(F)F)c2)cc1 (centres unmarked) [tert-butyl ({[4-({[4-chloro-2-({[4-chloro-3-(trifluoromethyl)phenyl]sulfonyl}amino)phenyl]sulfinyl}methyl)phenyl]carbonyl}amino)acetate] | 93 | 
CC(C)(C)OC(=O)CNC(=O)c1ccc(CS(=O)(=O)c2ccc(Cl)cc2NS(=O)(=O)c2ccc(Cl)c(C(F)(F)F)c2)cc1 [tert-butyl ({[4-({[4-chloro-2-({[4-chloro-3-(trifluoromethyl)phenyl]sulfonyl}amino)phenyl]sulfonyl}methyl)phenyl]carbonyl}amino)acetate] | 77 | 2660
